# US20230365592A1 (Agios Pharmaceuticals, Inc., priority 2022, published 2023)
# Target: T1, human PAH with the R408W mutation (Homo sapiens, UniProt P00439, R408W)
# T1 construct: expressed in transfected cells
# T1 sequence (P00439 1-452 R408W): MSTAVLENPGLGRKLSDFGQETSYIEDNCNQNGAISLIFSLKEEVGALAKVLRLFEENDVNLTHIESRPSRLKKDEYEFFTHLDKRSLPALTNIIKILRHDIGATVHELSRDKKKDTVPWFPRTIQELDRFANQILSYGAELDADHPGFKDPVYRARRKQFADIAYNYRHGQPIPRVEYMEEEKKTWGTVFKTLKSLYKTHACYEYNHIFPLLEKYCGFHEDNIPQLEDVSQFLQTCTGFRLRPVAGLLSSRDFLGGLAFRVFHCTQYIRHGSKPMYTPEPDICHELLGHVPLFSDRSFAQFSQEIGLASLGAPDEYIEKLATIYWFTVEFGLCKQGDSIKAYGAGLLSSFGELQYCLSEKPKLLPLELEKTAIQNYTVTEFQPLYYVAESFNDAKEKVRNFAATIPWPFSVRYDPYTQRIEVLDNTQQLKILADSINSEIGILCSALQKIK
# Experiment: Cell Based Phenylalanine Flux Assay;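 further: after compound treatment, cells received sepiapterin plus isotope-labelled Phenylalanine for 4 hours, then labelled Tyrosine in the medium was quantified, 10-point 2-fold dilution series run in duplicate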
# Details: A375 cells expressing human R408W PAH; 24 hrs compound incubation; 13C-Tyrosine by LC-MS; average where tested multiple times; read-out: AC50
row,Compound,AC50
1,"CC(C)(F)c1nc(C(F)F)c(C(=O)N2CCc3[nH]cnc3[C@@H]2c2cc3c(F)cccn3n2)o1 [Example 1227, (R)-(4-(difluoromethyl)-2-(2-fluoropropan-2-yl)oxazol-5-yl)(4-(4-fluoropyrazolo[1,5-a]pyridin-2-yl)-6,7-dihydro-1H-imidazo[4,5-c]pyridin-5(4H)-yl)methanone]",500 to 1000 nM
2,"CC(C)(F)c1nc(C(F)F)c(C(=O)N2CCc3[nH]cnc3[C@@H]2c2cc3c(Cl)cccn3n2)o1 [Example 1229, (R)-(4-(4-chloropyrazolo[1,5-a]pyridin-2-yl)-6,7-dihydro-1H-imidazo[4,5-c]pyridin-5(4H)-yl)(4-(difluoromethyl)-2-(2-fluoropropan-2-yl)oxazol-5-yl)methanone]",500 to 1000 nM
3,"Cc1cccc2cc([C@@H]3c4nc[nH]c4CCN3C(=O)c3oc(C(C)(C)F)nc3C(F)F)nn12 [Example 1230, (S)-(4-(difluoromethyl)-2-(2-fluoropropan-2-yl)oxazol-5-yl)(4-(7-methylpyrazolo[1,5-a]pyridin-2-yl)-6,7-dihydro-1H-imidazo[4,5-c]pyridin-5(4H)-yl)methanone]",< 500 nM
4,"Cc1cccc2cc([C@H]3c4nc[nH]c4CCN3C(=O)c3oc(C(C)(C)F)nc3C(F)F)nn12 [Example 1231, (R)-(4-(difluoromethyl)-2-(2-fluoropropan-2-yl)oxazol-5-yl)(4-(7-methylpyrazolo[1,5-a]pyridin-2-yl)-6,7-dihydro-1H-imidazo[4,5-c]pyridin-5(4H)-yl)methanone]",1000 to 5000 nM
5,"CC(C)(F)c1nc(C(F)F)c(C(=O)N2CCc3[nH]cnc3[C@H]2c2cc3cccc(Cl)n3n2)o1 [Example 1232, (S)-(4-(7-chloropyrazolo[1,5-a]pyridin-2-yl)-6,7-dihydro-1H-imidazo[4,5-c]pyridin-5(4H)-yl)(4-(difluoromethyl)-2-(2-fluoropropan-2-yl)oxazol-5-yl)methanone]",< 500 nM
6,"CC(C)(F)c1nc(C(F)F)c(C(=O)N2CCc3[nH]cnc3[C@@H]2c2cc3cccc(Cl)n3n2)o1 [Example 1233, (R)-(4-(7-chloropyrazolo[1,5-a]pyridin-2-yl)-6,7-dihydro-1H-imidazo[4,5-c]pyridin-5(4H)-yl)(4-(difluoromethyl)-2-(2-fluoropropan-2-yl)oxazol-5-yl)methanone]",1000 to 5000 nM
7,"O=C(c1oc(C2(O)CC2)nc1C(F)F)N1CCc2[nH]cnc2[C@H]1c1cc2c(F)cccn2n1 [Example 1234, (S)-(4-(difluoromethyl)-2-(1-hydroxycyclopropyl)oxazol-5-yl)(4-(4-fluoropyrazolo[1,5-a]pyridin-2-yl)-6,7-dihydro-1H-imidazo[4,5-c]pyridin-5(4H)-yl)methanone]",< 500 nM
8,"O=C(c1oc(C2(O)CC2)nc1C(F)F)N1CCc2[nH]cnc2[C@@H]1c1cc2c(F)cccn2n1 [Example 1235, (R)-(4-(difluoromethyl)-2-(1-hydroxycyclopropyl)oxazol-5-yl)(4-(4-fluoropyrazolo[1,5-a]pyridin-2-yl)-6,7-dihydro-1H-imidazo[4,5-c]pyridin-5(4H)-yl)methanone]",1000 to 5000 nM
9,"O=C(c1oc(C2(O)CC2)nc1C(F)F)N1CCc2[nH]cnc2[C@H]1c1cc2cccc(Cl)n2n1 [Example 1236, (S)-(4-(7-chloropyrazolo[1,5-a]pyridin-2-yl)-6,7-dihydro-1H-imidazo[4,5-c]pyridin-5(4H)-yl)(4-(difluoromethyl)-2-(1-hydroxycyclopropyl)oxazol-5-yl)methanone]",< 500 nM
10,"O=C(c1oc(C2(O)CC2)nc1C(F)F)N1CCc2[nH]cnc2[C@@H]1c1cc2cccc(Cl)n2n1 [Example 1237, (R)-(4-(7-chloropyrazolo[1,5-a]pyridin-2-yl)-6,7-dihydro-1H-imidazo[4,5-c]pyridin-5(4H)-yl)(4-(difluoromethyl)-2-(1-hydroxycyclopropyl)oxazol-5-yl)methanone]",1000 to 5000 nM
11,"CC(C)(O)c1nc(C(F)F)c(C(=O)N2CCc3[nH]cnc3[C@H]2c2cc3cccc(F)n3n2)o1 [Example 1238, (S)-(4-(difluoromethyl)-2-(2-hydroxypropan-2-yl)oxazol-5-yl)(4-(7-fluoropyrazolo[1,5-a]pyridin-2-yl)-6,7-dihydro-1H-imidazo[4,5-c]pyridin-5(4H)-yl)methanone]",< 500 nM
12,"CC(C)(O)c1nc(C(F)F)c(C(=O)N2CCc3[nH]cnc3[C@@H]2c2cc3cccc(F)n3n2)o1 [Example 1239, (R)-(4-(difluoromethyl)-2-(2-hydroxypropan-2-yl)oxazol-5-yl)(4-(7-fluoropyrazolo[1,5-a]pyridin-2-yl)-6,7-dihydro-1H-imidazo[4,5-c]pyridin-5(4H)-yl)methanone]",1000 to 5000 nM
13,"CCOc1cccc2cc([C@@H]3c4nc[nH]c4CCN3C(=O)c3ocnc3C(F)F)nn12 [Example 1240, (S)-(4-(difluoromethyl)oxazol-5-yl)(4-(7-ethoxypyrazolo[1,5-a]pyridin-2-yl)-6,7-dihydro-1H-imidazo[4,5-c]pyridin-5(4H)-yl)methanone]",< 500 nM
14,"CCOc1cccc2cc([C@H]3c4nc[nH]c4CCN3C(=O)c3ocnc3C(F)F)nn12 [Example 1241, (R)-(4-(difluoromethyl)oxazol-5-yl)(4-(7-ethoxypyrazolo[1,5-a]pyridin-2-yl)-6,7-dihydro-1H-imidazo[4,5-c]pyridin-5(4H)-yl)methanone]",1000 to 5000 nM
15,"CCOc1cccc2cc([C@@H]3c4nc[nH]c4CCN3C(=O)c3nnc(C(C)(C)F)o3)nn12 [Example 1242, (S)-(4-(7-ethoxypyrazolo[1,5-a]pyridin-2-yl)-6,7-dihydro-1H-imidazo[4,5-c]pyridin-5(4H)-yl)(5-(2-fluoropropan-2-yl)-1,3,4-oxadiazol-2-yl)methanone]",1000 to 5000 nM

# Next, values leading:
row,AC50,Compound
1,1000 to 5000 nM,"CCOc1cccc2cc([C@H]3c4nc[nH]c4CCN3C(=O)c3nnc(C(C)(C)F)o3)nn12 [Example 1243, (R)-(4-(7-ethoxypyrazolo[1,5-a]pyridin-2-yl)-6,7-dihydro-1H-imidazo[4,5-c]pyridin-5(4H)-yl)(5-(2-fluoropropan-2-yl)-1,3,4-oxadiazol-2-yl)methanone]"
2,1000 to 5000 nM,"CCOc1cccc2cc([C@H]3c4nc[nH]c4CCN3C(=O)c3oc(C(C)(C)O)nc3C(F)F)nn12 [Example 1244, (R)-(4-(difluoromethyl)-2-(2-hydroxypropan-2-yl)oxazol-5-yl)(4-(7-ethoxypyrazolo[1,5-a]pyridin-2-yl)-6,7-dihydro-1H-imidazo[4,5-c]pyridin-5(4H)-yl)methanone]"
3,1000 to 5000 nM,"CC(C)(C)c1nnc(C(=O)N2CCc3[nH]cnc3[C@@H]2c2cc3cccc(F)n3n2)o1 [Example 1248, (R)-(5-(tert-butyl)-1,3,4-oxadiazol-2-yl)(4-(7-fluoropyrazolo[1,5-a]pyridin-2-yl)-6,7-dihydro-1H-imidazo[4,5-c]pyridin-5(4H)-yl)methanone]"
4,< 500 nM,"CC(C)(C)c1nnc(C(=O)N2CCc3[nH]cnc3[C@H]2c2cc3cccc(F)n3n2)o1 [Example 1249, (S)-(5-(tert-butyl)-1,3,4-oxadiazol-2-yl)(4-(7-fluoropyrazolo[1,5-a]pyridin-2-yl)-6,7-dihydro-1H-imidazo[4,5-c]pyridin-5(4H)-yl)methanone]"
5,< 500 nM,"Cc1nc(C(C)(C)F)oc1C(=O)N1CCc2[nH]cnc2[C@H]1c1cc2ccccn2n1 [Example 1250, (S)-(2-(2-fluoropropan-2-yl)-4-methyloxazol-5-yl)(4-(pyrazolo[1,5-a]pyridin-2-yl)-6,7-dihydro-1H-imidazo[4,5-c]pyridin-5(4H)-yl)methanone]"
6,500 to 1000 nM,"Cc1nc(C(C)(C)F)oc1C(=O)N1CCc2[nH]cnc2[C@@H]1c1cc2ccccn2n1 [Example 1251, (R)-(2-(2-fluoropropan-2-yl)-4-methyloxazol-5-yl)(4-(pyrazolo[1,5-a]pyridin-2-yl)-6,7-dihydro-1H-imidazo[4,5-c]pyridin-5(4H)-yl)methanone]"
7,< 500 nM,"Cc1nc(C(C)(C)F)oc1C(=O)N1CCc2[nH]cnc2[C@H]1c1cc2cccc(C)n2n1 [Example 1252, (S)-(2-(2-fluoropropan-2-yl)-4-methyloxazol-5-yl)(4-(7-methylpyrazolo[1,5-a]pyridin-2-yl)-6,7-dihydro-1H-imidazo[4,5-c]pyridin-5(4H)-yl)methanone]"
8,1000 to 5000 nM,"Cc1nc(C(C)(C)F)oc1C(=O)N1CCc2[nH]cnc2[C@@H]1c1cc2cccc(C)n2n1 [Example 1253, (R)-(2-(2-fluoropropan-2-yl)-4-methyloxazol-5-yl)(4-(7-methylpyrazolo[1,5-a]pyridin-2-yl)-6,7-dihydro-1H-imidazo[4,5-c]pyridin-5(4H)-yl)methanone]"
9,1000 to 5000 nM,"CC(C)(F)c1nc(C(F)F)c(C(=O)N2CCc3[nH]cnc3[C@@H]2c2cc3ccccn3n2)o1 [Example 1254, (R)-(4-(difluoromethyl)-2-(2-fluoropropan-2-yl)oxazol-5-yl)(4-(pyrazolo[1,5-a]pyridin-2-yl)-6,7-dihydro-1H-imidazo[4,5-c]pyridin-5(4H)-yl)methanone]"
10,< 500 nM,"CC(C)(F)c1nc(C(F)F)c(C(=O)N2CCc3[nH]cnc3[C@H]2c2cc3ccccn3n2)o1 [Example 1255, (S)-(4-(difluoromethyl)-2-(2-fluoropropan-2-yl)oxazol-5-yl)(4-(pyrazolo[1,5-a]pyridin-2-yl)-6,7-dihydro-1H-imidazo[4,5-c]pyridin-5(4H)-yl)methanone]"
